Legend:
CD4/8+ T cells = test: Intracellular IFN-γ after PMA/ionomycin stimulation of expanded T cells; type: cell-based, human; conditions: IL-2 and Cbl inhibitor expanded T cells; PMA/ionomycin 6 h
Procedure: T cell activity was determined by analysis of cytokine secretion. To investigate whether these expanded T cells are capable of responding to extracellular stimulation, T cells were stimulated with 25 ng/mL phorbol myristate acetate (PMA) and 0.5 μM ionomycin. After 90 min of stimulation, monensin, 1:50, (GolgiStop, BD Biosciences) was added. After 6 h, cells were stained for surface expression of CD4+, CD8+, CD45RA+, CD95+, CCR7+, CD62L+, and subsequently, fixed, permeabilized and stained for intracellular cytokine, IFN-γ.

OT-1 cells = test: FACS of transferred OT-1 cells in blood and tumor of E.G7-OVA mice; type: in vivo, mouse
Procedure: Dead cells were removed (Miltenyi Biotec Cat #130-090-101) prior to transfer in vivo to monitor their trafficking and function in an EG.7 lymphoma model, which expresses the OVA antigen. Approximately five million cells per mouse were transferred to mice having an average tumor burden of about 70 mm^3. Following in vivo transfer of the OT-1 cells, antitumor response was monitored over time and the quality and quantity of immune response were assessed at various time points.
The expanded OT-1 cells were characterized by FACS analysis and transferred into E.G7-OVA mice, which bear ovalbumin (OVA) expressing tumors. Following in vivo transfer of expanded OT-1 cells, antitumor response was monitored over time and the quality and quantity of immune response was assessed at various time points. Analysis included FACS analysis on blood, tumor, and spleen samples. Analysis also included re-stimulation of splenocytes with OVA Class I peptide to evaluate the multifunctionality of the antigen-specific effector T cells.
On Day 0, E.G7-OVA cells were implanted into each mouse. On Day 5, approximately 5×10^6 in vitro expanded OT-1 cells were injected into the tail of each mouse. On Day 9, blood was analyzed by FACS. On Day 14, blood, tumor and spleen samples were analyzed by FACS. On Day 27, blood was analyzed by FACS. Tumor volume was measured approximately every five days through about 50 days post implant.
OT-1 cells were expanded according to the previous examples and administered to E.G7-OVA mice, which bear ovalbumin (OVA) expressing tumors. The cells were evaluated for their in vivo properties.
Expanded OT-1 cells were assessed in blood 4 days and 22 days after transfer.
Expanded OT-1 cells were assessed in tumors 4 days after transfer.

breast TIL = test: CDR3 diversity of expanded breast TIL (iRepertoire sequencing); type: cell-based, human; conditions: compound 103 alone or with high dose IL-2; 14 days in GREX10
Procedure: TIL were cultured for 14 days in GREX10. […] The raw data were analyzed by iRepertoire using IRmap programs with a modified Smith-Waterman algorithm. Using CDR3 algerbra software, the calculation of shared CDR3s across samples with the indicated treatment was assessed. […] All CDR3 frequencies were scaled to 10 million reads to account for differences in read depth among samples. Data was normalized so that each uCDR3-VDJ combination was treated as a quantity of 1 regardless of read count, and then analyzed for V usage and J usage.

CD8+ and CD4+ TIL = test: CD107a and granzyme B in TIL after anti-CD3/CD28 stimulation; type: cell-based, human
Procedure: In the context of cytotoxicity, granzyme B (Grb), a protease secreted to mediate apoptosis, was assessed.

TIL = test: Cytokine and chemokine secretion of expanded TIL (Luminex); type: cell-based, human
Procedure: Also assessed were cytokines and chemokines secreted during the 14 day expansion in GREX.
Supernatants were assessed by Luminex.

[1] = tested on: human tumor-infiltrating lymphocytes (TIL); test: Ex vivo expansion of TIL from human tumor fragments (pre-REP); type: cell-based; conditions: for Expansion of TIL, total cell number relative to IL-2 alone: day 17
Procedure: Samples of human ovarian and colon tumors were obtained from the Cooperative Human Tissue Network (CHTN, c/o Vanderbilt University Medical Center, Nashville, TN). Solid tumor specimens were carefully dissected free of surrounding fatty and necrotic areas. The tumors were sliced into 8 mm^3 (2×2×2 mm^3) fragments under sterile conditions using a scalpel and a scalpel holder.
The plates were placed in a humidified 37° C. incubator with 5% CO2. Half of the medium was replaced every two days after culture initiation. […] Subsequently, half the media was replaced thrice weekly, cultures were split to maintain a cell density of 1×10^6 cells/mL. […] Mitochondrial markers including, Mitotracker, Mitoprobe, and 2-NBDG may also be used to assess differentiation and/or activation of cells.

[2] = IL-2 + compound 103, upon stimulation
[3] = expanded with IL2 + compound 103, anti-CD3/CD28 6 hours

## C[C@@H]1CN(Cc2cc3c(c(C(F)(F)F)c2)CN(c2cccc(C4(Cc5nncn5C)COC4)c2)C3=O)CCC1(F)F [compound 103]
CD4/8+ T cells
  CD4/8+ T cells capable of producing IFN-γ: greater than 85%
OT-1 cells; Cbl inhibitor expanded, 4 and 22 days after transfer
  Frequency in total CD45+ cells and persistence in blood vs IL-2 alone or anti-CD3 alone: higher frequency in total CD45+ cells and persisted longer
OT-1 cells; Cbl inhibitor expanded, 4 days after transfer
  Tumor infiltration (frequency in total CD45+ cells in tumor) vs IL-2 alone or anti-CD3 alone: increased ability to infiltrate the tumor
OT-1 cells; OT-1 cells expanded with Cbl inhibitor
  OT-1 cells expressing stem markers TCF1+, PD-1+, TIM-3−: greater percentage of cells that expressed stem markers
OT-1 cells; expanded with Cbl inhibitor and IL-2, 4 and 22 days after transfer
  Frequency in total CD45+ cells and persistence in blood: even higher frequency in total CD45+ cells and higher persistence
OT-1 cells; expanded with Cbl inhibitor and IL-2, 4 days after transfer
  Tumor infiltration (frequency in total CD45+ cells in tumor): highest frequency in total CD45+ cells
OT-1 cells; expanded with Cbl inhibitor or Cbl inhibitor plus IL-2
  Expression of exhaustion markers PD1, TIM3, LAG3 in tumor vs IL-2 alone: lower level of expression of exhaustion markers
Breast TIL
  Unique CDR3s: Unique CDR3s increased
CD8+ and CD4+ TIL; [2]
  CD107A+GRB+ cells: significant increase
  Granzyme B (Grb) produced in TIL vs IL-2 alone: significant increase of Grb
CD8+ and CD4+ TIL; [3]
  CD4+ TIL capable of producing CD107a: greater than 60%
  CD8+ TIL capable of producing CD107a: greater than 60%
TIL; IL-2 + compound 103
  GMCSF, MIP1α, MIP1β and IP10 secreted during 14 day expansion in GREX: trending increases
  IFN-γ secreted during 14 day expansion in GREX: significant increase of IFN-γ
TIL; high dose IL-2 + 1 μM compound 103, 24 hours
  Secretion of IL-2, IL-5, IL-7, IL-21, IL-23, TNF-α, and IFN-γ upon stimulation: significant secretion
TIL; high dose IL-2 + 1 μM compound 103, anti-CD3/CD28 24 hours
  Secretion of MIP1α and MIP1β upon stimulation: significant increases in secretion
[1]; Cbl inhibitor in the absence of IL-2
  Expansion of TIL: considerable expansion of TIL
[1]; TIL1 (ovary), 0.1 μM Cbl-i
  Expansion of TIL, total cell number relative to IL-2 alone: 90%
[1]; TIL1 (ovary), 1.0 μM Cbl-i
  Expansion of TIL, total cell number relative to IL-2 alone: 75%
[1]; TIL1 (ovary), 10 μM Cbl-i
  Expansion of TIL, total cell number relative to IL-2 alone: 60%
[1]; TIL1 (ovary), IL-2 + 0.1 μM Cbl-i
  Expansion of TIL, total cell number relative to IL-2 alone: 300%
[1]; TIL1 (ovary), IL-2 + 1.0 μM Cbl-i
  Expansion of TIL, total cell number relative to IL-2 alone: 450%
[1]; TIL1 (ovary), IL-2 + 10 μM Cbl-i
  Expansion of TIL, total cell number relative to IL-2 alone: 450%
[1]; TIL2 (ovary), 0.1 μM Cbl-i
  Expansion of TIL, total cell number relative to IL-2 alone: 30%
[1]; TIL2 (ovary), 1.0 μM Cbl-i
  Expansion of TIL, total cell number relative to IL-2 alone: 26%
[1]; TIL2 (ovary), 10 μM Cbl-i
  Expansion of TIL, total cell number relative to IL-2 alone: 22%
[1]; TIL2 (ovary), IL-2 + 0.1 μM Cbl-i
  Expansion of TIL, total cell number relative to IL-2 alone: 49%
[1]; TIL2 (ovary), IL-2 + 1.0 μM Cbl-i
  Expansion of TIL, total cell number relative to IL-2 alone: 86%
[1]; TIL2 (ovary), IL-2 + 10 μM Cbl-i
  Expansion of TIL, total cell number relative to IL-2 alone: 49%
[1]; TIL3 (ovary), 0.1 μM Cbl-i
  Expansion of TIL, total cell number relative to IL-2 alone: 30%
[1]; TIL3 (ovary), 1.0 μM Cbl-i
  Expansion of TIL, total cell number relative to IL-2 alone: 43%
[1]; TIL3 (ovary), 10 μM Cbl-i
  Expansion of TIL, total cell number relative to IL-2 alone: 16%
[1]; TIL3 (ovary), IL-2 + 0.1 μM Cbl-i
  Expansion of TIL, total cell number relative to IL-2 alone: 103%
[1]; TIL3 (ovary), IL-2 + 1.0 μM Cbl-i
  Expansion of TIL, total cell number relative to IL-2 alone: 114%
[1]; TIL3 (ovary), IL-2 + 10 μM Cbl-i
  Expansion of TIL, total cell number relative to IL-2 alone: 110%
[1]; TIL4 (colon), 0.1 μM Cbl-i
  Expansion of TIL, total cell number relative to IL-2 alone: 45%
[1]; TIL4 (colon), 1.0 μM Cbl-i
  Expansion of TIL, total cell number relative to IL-2 alone: 58%
[1]; TIL4 (colon), 10 μM Cbl-i
  Expansion of TIL, total cell number relative to IL-2 alone: 54%
[1]; TIL4 (colon), IL-2 + 0.1 μM Cbl-i
  Expansion of TIL, total cell number relative to IL-2 alone: 113%
[1]; TIL4 (colon), IL-2 + 1.0 μM Cbl-i
  Expansion of TIL, total cell number relative to IL-2 alone: 197%
[1]; TIL4 (colon), IL-2 + 10 μM Cbl-i
  Expansion of TIL, total cell number relative to IL-2 alone: 170%
[1]; TIL5 (ovary), 0.1 μM Cbl-i
  Expansion of TIL, total cell number relative to IL-2 alone: 50%
[1]; TIL5 (ovary), 1.0 μM Cbl-i
  Expansion of TIL, total cell number relative to IL-2 alone: 70%
[1]; TIL5 (ovary), 10 μM Cbl-i
  Expansion of TIL, total cell number relative to IL-2 alone: 90%
[1]; TIL5 (ovary), IL-2 + 0.1 μM Cbl-i
  Expansion of TIL, total cell number relative to IL-2 alone: 20%
[1]; TIL5 (ovary), IL-2 + 1.0 μM Cbl-i
  Expansion of TIL, total cell number relative to IL-2 alone: 10%
[1]; TIL5 (ovary), IL-2 + 10 μM Cbl-i
  Expansion of TIL, total cell number relative to IL-2 alone: 20%
[1]; TIL6 (ovary), 0.1 μM Cbl-i
  Expansion of TIL, total cell number relative to IL-2 alone: 93%
[1]; TIL6 (ovary), 1.0 μM Cbl-i
  Expansion of TIL, total cell number relative to IL-2 alone: 87%
[1]; TIL6 (ovary), 10 μM Cbl-i
  Expansion of TIL, total cell number relative to IL-2 alone: 80%
[1]; TIL6 (ovary), IL-2 + 0.1 μM Cbl-i
  Expansion of TIL, total cell number relative to IL-2 alone: 280%
[1]; TIL6 (ovary), IL-2 + 1.0 μM Cbl-i
  Expansion of TIL, total cell number relative to IL-2 alone: 260%
[1]; TIL6 (ovary), IL-2 + 10 μM Cbl-i
  Expansion of TIL, total cell number relative to IL-2 alone: 240%
[1]; both IL-2 and Cbl inhibitor, TIL1 and TIL4
  Production of TIL vs IL-2 or Cbl inhibitor alone: substantially more TIL
